21 compounds from patent US20200308165A1, “Compounds as Ras Inhibitors and Use Thereof” (D.E. Shaw Research, LLC, priority 2017, published 2020) can be followed below.

In general, IC50 refers to the point on the concentration scale where inhibition reaches its midpoint. Read a high IC50 as lower potency.

Assay [1] addresses Ras protein (Homo sapiens, UniProt P01116). The assay is described as follows: GDPx_Icagen_IC50: SOS1-mediated guanine nucleotide exchange rate of Ras (mant-GDP). The class given is biochemical. Particulars: SOS1-initiated exchange.
Source text: (§1) In some embodiments, the IC50 assay measures the reduction effect of a given compound on the guanine nucleotide-echange rate of Ras protein in the presence of guanine nucleotide exchange protein SOS1, which is a Ras activator. In the assay GDP-loaded Ras was first prepared in a buffer containing the compound at certain concentration and fluorescent guanine nucleotide (mant-GDP (used in Icagene assay) or mant-GTP (used in other IC50 assays). The guanine nucleotide exchange was initiated by the addition of the SOS1 and its rate was reflected in the rate of fluorescence change as a function of time, which was monitored by a reader. The experiment was repeated at different compound concentrations and the IC50 of the compound was defined as the compound concentration at which half of its maximal reduction effect on the guanine nucleotide exchange rate is achieved. In other embodiments, other Ras activator proteins may be used. Non-limiting examples of other Ras activator proteins include RasGRP (Ras guanyl-releasing protein).
Example 17. Evaluation of Biological Activities: GDPx_Icagen_ICso
as §1, with “The IC50” for “In some embodiments, the IC50”, “guanine nucleotide-exchange” for “guanine nucleotide-echange”, “Ras is” for “Ras was”, “nucleotide (mant-GDP).” for “nucleotide (mant-GDP (used in Icagene assay) or mant-GTP (used in other IC50 assays).”, “achieved.” for “achieved. In other embodiments, other Ras activator proteins may be used. Non-limiting examples of other Ras activator proteins include RasGRP (Ras guanyl-releasing protein).”

Assay [2] has as its target T1, KRAS4B (wild type) (Homo sapiens, UniProt P01116).
T1 construct: purchased Cytoskeleton CS-RS03 (K-Ras4B); CS-SOS1-A (SOS1)
Put plainly: K-Ras Nucleotide Exchange Assay-384 (SOS Exchange Assay by Cytoskeleton, GTPx_Cyt_IC50). The class given is biochemical. Particulars: 1 μM KRAS4B, 0.05 μM SOS1, 1.5 μM mant-GDP. As to the method: Example 16. Evaluation of Biological Activities: K-Ras Nucleotide Exchange Assay-384 (SOS Exchange Assay by Cytoskeleton (GTPx_Cyt_IC50))
This assay is used to evaluate inhibitors of K-ras, by monitoring the inhibition of nucleotide exchange over time, in the presence of the protein SOS.
384-well black, untreated plates (Corning 3820 with NBS or 3821 untreated) were used. K-Ras4B Protein was used, which is wild-type (Cytoskeleton #CS-RS03) with a concnetration of 5 mg/ml, or 200 μM. Human SOS1 Protein, Exchange Domain 564-1049 (Cytoskeleton # CS-SOS1-A) was used in a concentration of 3.03 mg/ml or 50 μM. Mant-GDP triethylammonium salt solution was purchased from Sigma (catalog No. 69244). 1M stock solution of Hepes was purchased from Sigma (catalog No. H9897). 1M stock solution of MgCl2 was purchased from Sigma (catalog No. M4880). CHAPS, 3% was purchased from Sigma (catalog No. C5070). Nonidet P40 was purchased from Sigma. KOH pellets were purchased from Sigma.
K-ras buffer containing 40 mM Hepes, 10 mM MgCl2, 0.05% CHAPS, 0.01% NP40 with a pH 7.5 was prepared as follows: to a Buffer base containing 4 ml 1M Hepes, 1 ml MgCl2,
93.3 ml d-H2O, pH 7.5 (with KOH pellets), 1.7 ml 3% CHAPS was added, followed by the addition of 1 ml 1% NP40.
Final Conditions of the method included 1 μM KRAS4B (wild type), 0.05 μM SOS1, 1.5 μM mant-GDP. Reagent Preparation included: thawing aliquots of KRAS, SOS, and mant-GDP; preparing 3x KRAS (3 uM) in assay buffer; preparing 3x SOS/mant-GDP (150 nM/4.5 uM) in assay buffer; and preparing 3x compounds in assay buffer.
Assay Procedure (1536) used 3.3 μl, 3x Kras, 3.3 μl 3x compound with preincubate 0 hour, and […] 3x SOS/mant-GDP. A kinetic read measuring fluorescence at 360_450 was performed for 30 min at 30 second intervals.
Reference compound SCH 54292 (reversible inhibitor) at about 100 μM was used with no preincubation. Reagents were only stable for 45 min on ice, and therefore were prepared fresh before each assay. Partial plates (up to 9 columns) were run at a time to minimize effects due to the amount of time it takes to read a whole plate. SOS/mant-GDP were added with an automated pipettor to initiate all reactions at the same time. Assay was typically performed at 0.5% solution in DMSO (compounds prepared in 1.5% DMSO initially).
Clariostar Settings were as follows. Test Name was Kras Kinetic 360-450. Basic settings of the test included Measurement type as Fluorescence (FI), and Microplate name as Corning 3820. Plate mode settings included 61 cycles, 30 second cycle time, and 10 flashes per well. Optic settings were as follows. Excitation wavelength was 360 nm. Emission wavelength was 450 nM. Excitation bandwidth was 12 nm. Emission bandwidth was 12 nm. Dichroic filter 405 was used. D6 Well(s) was used for gain adjustment. No shaking was used. General settings were as follows. Top optic was used. Settling time was 0.1 second. Reading direction was bidirectional, horizontal left to right, and bottom to top. The target temperature was 25° C.

SMILES strings stand for the structures.

T1 sequence (P01116 1-188 isoform P01116-2): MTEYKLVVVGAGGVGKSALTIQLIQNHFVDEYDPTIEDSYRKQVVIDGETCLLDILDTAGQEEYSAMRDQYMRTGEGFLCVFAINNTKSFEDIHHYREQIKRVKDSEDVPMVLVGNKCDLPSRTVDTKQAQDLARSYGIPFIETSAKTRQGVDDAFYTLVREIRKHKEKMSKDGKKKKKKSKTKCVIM
Ras protein, sequence (P01116 1-188 isoform P01116-2): as above

Take `O=c1cc(CSc2nc(-c3ccccc3)cs2)[nH]n1-c1nc2ccccc2[nH]1` [Compound 151, 2-(1H-benzo[d]imidazol-2-yl)-5-(((4-phenylthiazol-2-yl)thio)methyl)-1,2-dihydro-3H-pyrazol-3-one]: the IC50 in assay [1] and in assay [2] was 400 nM throughout.

For the compound `N#Cc1cccc(SCc2cc(=O)n(-c3nc4ccccc4[nH]3)[nH]2)c1` [Compound 173, 3-(((1-(1H-benzo[d]imidazol-2-yl)-5-oxo-2,5-dihydro-1H-pyrazol-3-yl)methyl)thio)benzonitrile], the IC50 in assay [1] turned out to be 500 nM; in assay [2] it was 100000 nM.

With `O=c1cc(CSc2nc3cc(Cl)ccc3s2)[nH]n1-c1nc2ccccc2[nH]1` [Compound 154, 2-(1H-benzo[d]imidazol-2-yl)-5-(((5-chlorobenzo[d]thiazol-2-yl)thio)methyl)-1,2-dihydro-3H-pyrazol-3-one], the IC50 turned out to be 300 nM in assay [1] and 1300 nM in assay [2].

Take `O=c1cc(CSc2ncccn2)[nH]n1-c1nc2ccccc2[nH]1` [Compound 156, 2-(1H-benzo[d]imidazol-2-yl)-5-((pyrimidin-2-ylthio)methyl)-1,2-dihydro-3H-pyrazol-3-one]: the IC50 in assay [1] is 3000 nM; in assay [2], 7000 nM.

Consider `O=c1cc(CSc2ccncc2)[nH]n1-c1nc2ccccc2[nH]1` [Compound 168, 2-(1H-benzo[d]imidazol-2-yl)-5-((pyridin-4-ylthio)methyl)-1,2-dihydro-3H-pyrazol-3-one], for which the results for the IC50 in assay [1] and in assay [2] were 2300 nM and 7000 nM, respectively.

`O=c1cc(CSc2ccc(Cl)c(Cl)c2)[nH]n1-c1nc2ccccc2[nH]1` [Compound 172, 2-(1H-benzo[d]imidazol-2-yl)-5-(((3,4-dichlorophenyl)thio)methyl)-1,2-dihydro-3H-pyrazol-3-one]: the half-maximal inhibitory concentration (IC50) was 200 nM in assay [1] and 800 nM in assay [2].

Turning to `O=c1cc(CSCc2ccc(F)cc2)[nH]n1-c1nc2ccccc2[nH]1` [Compound 148, 2-(1H-benzo[d]imidazol-2-yl)-5-(((4-fluorobenzyl)thio)methyl)-1,2-dihydro-3H-pyrazol-3-one], the results for the IC50 in assay [1] and in assay [2] were 300 nM and 550 nM, respectively.

Regarding `O=c1cc(CSc2nnc(-c3ccccc3)o2)[nH]n1-c1nc2ccccc2[nH]1` [Compound 153, 2-(1H-benzo[d]imidazol-2-yl)-5-(((5-phenyl-1,3,4-oxadiazol-2-yl)thio)methyl)-1,2-dihydro-3H-pyrazol-3-one], the IC50 in assay [1] is 2000 nM; in assay [2], 800 nM.

Regarding `Cc1cccc(-n2[nH]c(CSc3ccccc3)cc2=O)n1` [Compound 169, 2-(6-methylpyridin-2-yl)-5-((phenylthio)methyl)-1,2-dihydro-3H-pyrazol-3-one], the IC50 in assay [1] stood at 7000 nM; in assay [2], 2600 nM.

Consider `O=c1cc(CSc2ccccc2)[nH]n1-c1cnccn1` [Compound 166, 5-((phenylthio)methyl)-2-(pyrazin-2-yl)-1,2-dihydro-3H-pyrazol-3-one], for which the figures for the half-inhibitory concentration (IC50) in assay [1] and in assay [2] were 48800 nM and 331000 nM, respectively.

For `Cc1nnc(SCc2cc(=O)n(-c3nc4ccccc4s3)[nH]2)s1` [Compound 187, 2-(benzo[d]thiazol-2-yl)-5-(((5-methyl-1,3,4-thiadiazol-2-yl)thio)methyl)-1,2-dihydro-3H-pyrazol-3-one], the IC50 was determined as 21000 nM in assay [1] and 500000 nM in assay [2].

`Cc1cc(C)nc(SCc2cc(=O)n(-c3nc4ccccc4s3)[nH]2)n1` [Compound 184, 2-(benzo[d]thiazol-2-yl)-5-(((4,6-dimethylpyrimidin-2-yl)thio)methyl)-1,2-dihydro-3H-pyrazol-3-one]: the IC50 turned out to be 5800 nM in assay [1] and 13600 nM in assay [2].

Take `[N-]=[N+]=NCc1ccc(SCc2cc(=O)n(-c3nc4ccccc4[nH]3)[nH]2)cc1` [Compound 162, 5-(((4-(azidomethyl)phenyl)thio)methyl)-2-(1H-benzo[d]imidazol-2-yl)-1,2-dihydro-3H-pyrazol-3-one]: the IC50 was 100000 nM in assay [1] and 1400 nM in assay [2].

On to `Cc1ccnc(-n2[nH]c(CSc3ccccc3)cc2=O)c1` [Compound 174, 2-(4-methylpyridin-2-yl)-5-((phenylthio)methyl)-1,2-dihydro-3H-pyrazol-3-one], for which the IC50 in assay [1] amounted to 9300 nM; in assay [2], 2700 nM.

Turning to `Cc1nnc(SCc2cc(=O)n(-c3nc4ccccc4[nH]3)[nH]2)s1` [Compound 147, 2-(1H-benzo[d]imidazol-2-yl)-5-(((5-methyl-1,3,4-thiadiazol-2-yl)thio)methyl)-1,2-dihydro-3H-pyrazol-3-one], the results for the IC50 in assay [1] and in assay [2] were 3300 nM and 850 nM, respectively.

Regarding `COc1cccc(SCc2cc(=O)n(-c3nc4ccccc4[nH]3)[nH]2)c1` [Compound 150, 2-(1H-benzo[d]imidazol-2-yl)-5-(((3-methoxyphenyl)thio)methyl)-1,2-dihydro-3H-pyrazol-3-one], the IC50 was determined as 200 nM in assay [1] and 980 nM in assay [2].

Consider `Cc1ccc(SCc2cc(=O)n(-c3nc4ccccc4[nH]3)[nH]2)cc1` [Compound 186, 2-(1H-benzo[d]imidazol-2-yl)-5-((p-tolylthio)methyl)-1,2-dihydro-3H-pyrazol-3-one], for which the IC50 in assay [1] came to 1300 nM; in assay [2] it was 500000 nM.

On to `NC(=O)c1cccc(SCc2cc(=O)n(-c3nc4ccccc4[nH]3)[nH]2)c1` [Compound 159, 3-(((1-(1H-benzo[d]imidazol-2-yl)-5-oxo-2,5-dihydro-1H-pyrazol-3-yl)methyl)thio)benzamide], for which the IC50 worked out at 500 nM in assay [1] and 1000 nM in assay [2].

Take `O=c1cc(CSc2nccc(C(F)(F)F)n2)[nH]n1-c1nc2ccccc2[nH]1` [Compound 149, 2-(1H-benzo[d]imidazol-2-yl)-5-(((4-(trifluoromethyl)pyrimidin-2-yl)thio)methyl)-1,2-dihydro-3H-pyrazol-3-one]: the IC50 was 300 nM in assay [1] and 410 nM in assay [2].

As for `O=c1cc(CSc2ccccc2Cl)[nH]n1-c1nc2ccccc2[nH]1` [Compound 167, 2-(1H-benzo[d]imidazol-2-yl)-5-(((2-chlorophenyl)thio)methyl)-1,2-dihydro-3H-pyrazol-3-one], the IC50 in assay [1] was found to be 200 nM; in assay [2], 300000 nM.

`O=c1cc(CSc2ccccc2)[nH]n1-c1nc2ccccc2[nH]1` [Compound 144, 2-(1H-benzo[d]imidazol-2-yl)-5-((phenylthio)methyl)-1,2-dihydro-3H-pyrazol-3-one]: the IC50 was found to be 300 nM in assay [1] and 420 nM in assay [2].
